# Source: patent US20260098058A1, “COMPOUND - DIAGNOSTIC MARKER FOR OVARIAN CANCER, METHOD FOR DETECTING ENZYMATIC ACTIVITY, METHOD FOR DIAGNOSIS OF OVARIAN CANCER, KIT COMPRISING THE COMPOUND, USES OF THE COMPOUND AND METHOD FOR THE TREATMENT OF OVARIAN CANCER” (Urteste S.A., priority 2022, published 2026)
# Values joined by “and” are separate entries in the source; they are usually repeats but may differ in a detail not shown here. Equal entries are not always repeated. “Also recorded” adds a separate entry of the source. Starred links: 1 amine or outer side, 2 acyl side, 3 side chain; linkers in the order of their positions; H or OH if unused. Non-standard residues stand in square brackets, D forms with d. No end group written: not given here. Benzoyl(5-NH,2-NO2) = O=C(c1cc(N[*:1])ccc1[N+](=O)[O-])[*:2]; 2Abz = Nc1ccccc1C(=O)O
# How the values were obtained:
# [1] = test system: urine samples from subjects with ovarian cancer or another neoplastic disease; test: Selectivity of substrate cleavage by cancer type (urine samples); format: biochemical, human; details: intestine, kidney, prostate, pancreas, stomach, lung, uterine body and liver cancer samples (FIG. 3)
# Source text: Arabic numerals indicate the numbers of given cancer types. The samples tested for each type of cancer were derived from 20 different patients for each of the tested cancers. The results are mean values for given cancer types.
# (§1) The activity of the novel compounds according to the invention was studied in a group of 20 subjects diagnosed with ovarian cancer using the representative compound according to the invention. […] The remaining compounds according to the invention are characterized by the analogous mechanism of action. For this purpose, the representative compound according to the invention, ABZ^1-Asp^2-Thr^3-Phe^4-Ile^5-NH2, was dissolved in dimethyl sulfoxide (at a concentration of 0.5 mg/mL) and then […] of the solution was mixed with […] of a buffer (200 mM Tris-HCl, pH 8.0) and […] of urine from a subject suffering from ovarian cancer. The measurement was performed on a 96-well plate designed for measuring absorbance and each sample was analysed in triplicate at the temperature of 37° C. The duration of the measurement was 60 minutes. During the measurement, the wavelength characteristic for the chromophore (ANB-NH2) being released was monitored at the wavelength 405 nm (range 380-430 nm).
# Furthermore, the dependence of the cleavage selectivity of the substrate, i.e. the compound according to the invention, on the cancer type being examined, was studied. […]
# [2] = test system: enzyme(s) in the studied material; test: Dependence of substrate hydrolysis on reaction pH; format: biochemical; details: FIG. 4
# Experimental: Furthermore, measurements concerning the dependence of the proteolytic activity of the representative compound according to the invention on the reaction pH were performed.
# [3] = test system: urine samples taken from healthy persons (without a cancer diagnosis); test: Absorbance measurement of substrate hydrolysis in urine from healthy subjects; format: biochemical, human; details: for Results of absorbance analysis (rate of hydrolysis of the substrate): 405 nm, 37° C., 60 minutes, pH 8.0, triplicate
# [4] = test system: urine taken from a person diagnosed with ovarian cancer; test: RP HPLC analysis of substrate cleavage in urine; format: biochemical, human; details: randomly selected urine sample from a person diagnosed with ovarian cancer (FIG. 1)
# [5] = test system: enzymatic (proteolytic) activity in urine from a subject suffering from ovarian cancer; test: Absorbance measurement of substrate hydrolysis in urine from subjects with ovarian cancer; format: biochemical, human; details: for Results of absorbance analysis (rate of hydrolysis of the substrate): 405 nm, 37° C., 60 minutes, pH 8.0, triplicate
# Experimental: as §1
substance,measurement,setting,value
"ABZ-Asp-Thr-Phe-Ile-ANB-NH2 ([2Abz]DTFI-{Benzoyl(5-NH,2-NO2)-NH2})",cleavage / increase in absorbance with samples of other cancers,[1],is not subject to cleavage
same,dependence of the hydrolysis level of the substrate on pH,[2],maximum activity at alkaline pH
same,increase in absorbance within the diagnostic range,[3]; 20 urine samples from healthy subjects (Z21 to Z40),no increase in absorbance; also recorded: does not lead to an increase in absorbance
same,Results of absorbance analysis (rate of hydrolysis of the substrate),"[3]; urine sample Z21, healthy subject",0.000000
same,Results of absorbance analysis (rate of hydrolysis of the substrate),"[3]; urine sample Z22, healthy subject",0.000000
same,Results of absorbance analysis (rate of hydrolysis of the substrate),"[3]; urine sample Z23, healthy subject",0.000000
same,Results of absorbance analysis (rate of hydrolysis of the substrate),"[3]; urine sample Z24, healthy subject",0.000000
same,Results of absorbance analysis (rate of hydrolysis of the substrate),"[3]; urine sample Z25, healthy subject",0.000000
same,Results of absorbance analysis (rate of hydrolysis of the substrate),"[3]; urine sample Z26, healthy subject",0.000000
same,Results of absorbance analysis (rate of hydrolysis of the substrate),"[3]; urine sample Z27, healthy subject",0.000000
same,Results of absorbance analysis (rate of hydrolysis of the substrate),"[3]; urine sample Z28, healthy subject",0.000000
same,Results of absorbance analysis (rate of hydrolysis of the substrate),"[3]; urine sample Z29, healthy subject",0.000000
same,Results of absorbance analysis (rate of hydrolysis of the substrate),"[3]; urine sample Z30, healthy subject",0.000000
same,Results of absorbance analysis (rate of hydrolysis of the substrate),"[3]; urine sample Z31, healthy subject",0.000000
same,Results of absorbance analysis (rate of hydrolysis of the substrate),"[3]; urine sample Z32, healthy subject",0.000000
same,Results of absorbance analysis (rate of hydrolysis of the substrate),"[3]; urine sample Z33, healthy subject",0.000000
same,Results of absorbance analysis (rate of hydrolysis of the substrate),"[3]; urine sample Z34, healthy subject",0.000000
same,Results of absorbance analysis (rate of hydrolysis of the substrate),"[3]; urine sample Z35, healthy subject",0.000000
same,Results of absorbance analysis (rate of hydrolysis of the substrate),"[3]; urine sample Z36, healthy subject",0.000000
same,Results of absorbance analysis (rate of hydrolysis of the substrate),"[3]; urine sample Z37, healthy subject",0.000000
same,Results of absorbance analysis (rate of hydrolysis of the substrate),"[3]; urine sample Z38, healthy subject",0.000000
same,Results of absorbance analysis (rate of hydrolysis of the substrate),"[3]; urine sample Z39, healthy subject",0.000000
same,Results of absorbance analysis (rate of hydrolysis of the substrate),"[3]; urine sample Z40, healthy subject",0.000000
same,cleavage products by RP HPLC,[4],cleaves into the peptide fragment ABZ-Asp-Thr-Phe-Ile-OH and the chromophore group of the compound (ANB-NH2)
same,colour intensity of the solution (absorbance in time),[5]; all urine samples from persons diagnosed with ovarian cancer (samples 1-20),increased with time
same,efficiency of cleavage of the substrate between samples,[5]; samples 3 and 17 compared with samples 1 or 13,less efficiently
same,Results of absorbance analysis (rate of hydrolysis of the substrate),"[5]; urine sample 1, ovarian cancer",0.0066 and 0.006 and 0.0065
same,Results of absorbance analysis (rate of hydrolysis of the substrate),"[5]; urine sample 2, ovarian cancer",0.052 and 0.042 and 0.051
same,Results of absorbance analysis (rate of hydrolysis of the substrate),"[5]; urine sample 3, ovarian cancer",0.0087 and 0.0088 and 0.0086
same,Results of absorbance analysis (rate of hydrolysis of the substrate),"[5]; urine sample 4, ovarian cancer",0.0069 and 0.0051 and 0.0067
same,Results of absorbance analysis (rate of hydrolysis of the substrate),"[5]; urine sample 5, ovarian cancer",0.044 and 0.038 and 0.042
same,Results of absorbance analysis (rate of hydrolysis of the substrate),"[5]; urine sample 6, ovarian cancer",0.037 and 0.022 and 0.028
same,Results of absorbance analysis (rate of hydrolysis of the substrate),"[5]; urine sample 8, ovarian cancer",0.014 and 0.022 and 0.015
same,Results of absorbance analysis (rate of hydrolysis of the substrate),"[5]; urine sample 9, ovarian cancer",0.0088 and 0.0101 and 0.0092
same,Results of absorbance analysis (rate of hydrolysis of the substrate),"[5]; urine sample 10, ovarian cancer",0.009 and 0.0093 and 0.0085
same,Results of absorbance analysis (rate of hydrolysis of the substrate),"[5]; urine sample 11, ovarian cancer",0.0123 and 0.0112 and 0.0145
same,Results of absorbance analysis (rate of hydrolysis of the substrate),"[5]; urine sample 12, ovarian cancer",0.0216 and 0.021 and 0.0199
same,Results of absorbance analysis (rate of hydrolysis of the substrate),"[5]; urine sample 13, ovarian cancer",0.0045 and 0.0052 and 0.0048
same,Results of absorbance analysis (rate of hydrolysis of the substrate),"[5]; urine sample 14, ovarian cancer",0.005 and 0.0061 and 0.0058
same,Results of absorbance analysis (rate of hydrolysis of the substrate),"[5]; urine sample 15, ovarian cancer",0.0017 and 0.0015 and 0.0021
same,Results of absorbance analysis (rate of hydrolysis of the substrate),"[5]; urine sample 16, ovarian cancer",0.0079 and 0.0084 and 0.0072
same,Results of absorbance analysis (rate of hydrolysis of the substrate),"[5]; urine sample 18, ovarian cancer",0.0073 and 0.0068 and 0.0075
same,Results of absorbance analysis (rate of hydrolysis of the substrate),"[5]; urine sample 19, ovarian cancer",0.055 and 0.051 and 0.048
same,Results of absorbance analysis (rate of hydrolysis of the substrate),"[5]; urine sample 20, ovarian cancer",0.0077 and 0.0075 and 0.0081
